Row | melting point | Compound
1 | 206 to 207 °C | N#C[C@H]1CN(c2ncc(Cl)cc2Cl)CC[C@@]1(O)COc1ccc(F)c2c1CCC(=O)N2 (relative stereo)
2 | 175 to 177 °C | N#Cc1cccc(N2CCC(O)(COc3ccc(F)c4c3CCC(=O)N4)CC2)c1
3 | 204 to 205 °C | O=C1CCc2c(OC[C@]3(O)CCN(c4ccc(F)cc4Cl)C[C@@H]3F)ccc(F)c2N1 (relative stereo)
4 | 216 to 216.3 °C | O=C1CCc2c(OC[C@]3(O)CCN(c4cc(Cl)c(F)cc4Cl)C[C@H]3O)ccc(F)c2N1
5 | 161.6 to 161.9 °C | O=C1CCc2c(OC[C@]3(O)CCN(c4ccc(OC(F)(F)F)cc4F)C[C@H]3O)ccc(F)c2N1
6 | 190 to 191 °C | O=C1CCc2c(OC[C@]3(O)CCN(c4ccc(Cl)cc4F)C[C@@H]3F)ccc(F)c2N1 (relative stereo)
7 | 212 to 213 °C | O=C1CCc2c(OCC3(O)CCN(c4c(F)cccc4Cl)CC3)ccc(F)c2N1
8 | 185 to 186.4 °C | O=C1CCc2c(OC[C@]3(O)CCN(c4ccc(Cl)cc4F)C[C@H]3O)ccc(Cl)c2N1 [Example 328]
9 | 220.5 to 221.3 °C | O=C1CCc2c(OC[C@]3(O)CCN(c4ccc(Cl)cc4F)C[C@H]3O)cc(F)c(F)c2N1 (relative stereo) [Example 330]
10 | 214 to 216 °C | O=C1CCc2c(OC[C@]3(O)CCN(c4ccc(Br)cc4F)C[C@H]3O)cc(F)c(F)c2N1 (relative stereo)
11 | 171 to 172 °C | CCOC(=O)O[C@@H]1CN(c2ccc(Cl)cc2F)CC[C@@]1(O)COc1ccc(F)c2c1CCC(=O)N2
12 | 222.6 to 222.7 °C | COc1cc(N2CCC(O)(COc3ccc(F)c4c3CCC(=O)N4)CC2)ccc1Cl
13 | 199 to 202 °C | CCOc1cc(F)c(N2CC[C@@](O)(COc3ccc(F)c4c3CCC(=O)N4)[C@H](O)C2)c(F)c1 (relative stereo) [Example 316]
14 | 199 to 199.7 °C | O=C1CCc2c(OC[C@]3(O)CCN(c4cc(F)c(Cl)cc4F)C[C@H]3O)ccc(F)c2N1
15 | 183 to 184 °C | O=C1CCc2c(OC[C@]3(O)CCN(c4ccc(Br)cc4F)C[C@H]3O)ccc(Cl)c2N1 [Example 271]
16 | 190 to 191 °C | O=C1CCc2c(OC[C@]3(O)CCN(c4nc5ccccc5o4)C[C@H]3O)ccc(F)c2N1
17 | 237.7 to 238.6 °C | O=C1CCc2c(OC[C@]3(O)CCN(c4cc(Cl)c(F)cc4Cl)C[C@H]3O)ccc(Cl)c2N1
18 | 192 to 192.3 °C | O=C1CCc2c(OCC3(O)CCN(c4ccc(Cl)cn4)CC3)ccc(F)c2N1
19 | 193 °C | O=C1CCc2c(OCC3(O)CCN(c4ccc(OCc5ccccc5)cc4F)CC3)ccc(F)c2N1
20 | 161.3 to 161.4 °C | O=C1CCc2c(OC[C@]3(O)CCN(c4ccccc4Cl)C[C@H]3O)ccc(F)c2N1
21 | 214 to 215 °C | Cc1cc(Cl)ccc1N1CCC(O)(COc2ccc(F)c3c2CCC(=O)N3)CC1
22 | 177 to 177.4 °C | O=C1CCc2c(OCC3(O)CCN(c4ccccc4)CC3)ccc(F)c2N1
23 | 201 to 202 °C | O=C1CCc2c(OC[C@]3(O)CCN(c4c(F)cc(OCC(F)(F)F)cc4F)C[C@H]3O)ccc(F)c2N1 (relative stereo) [Example 310]
24 | 178.2 to 178.8 °C | O=C1CCc2c(OCC3(O)CCN(c4cccnc4)CC3)ccc(F)c2N1
25 | 187 °C | O=C1CCc2c(OC[C@]3(O)CCN(c4c(F)cc(OCC(F)(F)F)cc4F)C[C@H]3O)ccc(F)c2N1 [Example 311]
26 | 195 to 198 °C | O=C1CCc2c(OC[C@]3(O)CCN(c4c(F)cc(Br)cc4F)C[C@H]3O)ccc(Cl)c2N1 (relative stereo) [Example 339]
27 | 202.8 to 203.5 °C | O=C1CCc2c(OC[C@]3(O)CCN(c4ccccc4)C[C@H]3O)ccc(F)c2N1
28 | 185.2 to 185.3 °C | O=C1CCc2c(OC[C@]3(O)CCN(c4ccc(F)cc4)C[C@H]3O)ccc(F)c2N1 [Example 337]
29 | 203.6 to 203.7 °C | O=C1CCc2c(OC[C@]3(O)CCN(c4c(F)cc(Br)cc4F)C[C@H]3O)ccc(Cl)c2N1 [Example 326]

Second part, the compound before the results:

Row | Compound | melting point
30 | O=C1CCc2c(OCC3(O)CCN(c4ccc(F)cc4Cl)CC3)ccc(F)c2N1 | 208 °C
31 | CCOc1cc(F)c(N2CCC(O)(COc3ccc(Cl)c4c3CCC(=O)N4)CC2)cc1F | 169 to 169.2 °C
32 | Cc1cc(Cl)cc(Cl)c1N1CCC(O)(COc2ccc(F)c3c2CCC(=O)N3)CC1 | 251.6 to 251.9 °C
33 | CCOc1cc(F)c(N2CCC(O)(COc3ccc(F)c4c3CCC(=O)N4)CC2)cc1F | 174.1 to 174.5 °C
34 | N#CC1(COc2ccc(F)c3c2CCC(=O)N3)CCN(c2ncc(Cl)cc2Cl)CC1 | 218 °C
35 | O=C1CCc2c(OCC3(O)CCN(c4cc(OCCOc5ccc(F)cc5)c(Cl)cc4F)CC3)ccc(F)c2N1 | 159.2 to 160 °C
36 | O=C1CCc2c(OC[C@]3(O)CCN(c4c(F)cc(Cl)cc4F)C[C@H]3F)ccc(F)c2N1 (relative stereo) [Example 440] | 222 to 223 °C
37 | O=C1CCc2c(OCC3(O)CCN(c4ccc5sccc5c4)CC3)ccc(Cl)c2N1 | 193.8 to 194.5 °C
38 | O=C1CCc2cc(OCC3(O)CCN(c4ccc(Cl)cc4F)CC3)ccc2N1 | 219.1 to 220 °C
39 | COc1ccc(N2CCC(O)(COc3ccc(F)c4c3CCC(=O)N4)CC2)c(F)c1 | 201.3 to 201.9 °C
40 | CCOc1cc(N2CCC(O)(COc3ccc(F)c4c3CCC(=O)N4)CC2)c(F)cc1Cl | 239.8 to 239.9 °C
41 | O=C1CCc2c(OCC3(O)CCN(c4ccc(OCc5ccc(C(F)(F)F)cc5)cc4F)CC3)ccc(F)c2N1 | 207.4 to 210.3 °C
42 | O=C1CCc2c(OCC3(O)CCN(c4ccc(Br)cc4F)CC3)ccc(Cl)c2N1 | 223.1 to 223.2 °C
43 | COc1cc(F)c(N2CCC(O)(COc3ccc(Cl)c4c3CCC(=O)N4)CC2)c(F)c1 | 171.1 to 171.3 °C
44 | O=C1CCc2c(OCC3(O)CCN(c4ccc(Cl)cc4C(F)(F)F)CC3)ccc(F)c2N1 | 211.3 to 211.5 °C
45 | O=C1CCc2c(OCC3(O)CCN(c4c(F)cc(Cl)cc4Cl)CC3)ccc(F)c2N1 | 238.8 to 239.1 °C
46 | COc1cc(F)c(N2CCC(O)(COc3ccc(F)c4c3CCC(=O)N4)CC2)c(F)c1 | 195.7 to 196.4 °C
47 | COc1cc(N2CCC(O)(COc3ccc(Cl)c4c3CCC(=O)N4)CC2)c(F)cc1F | 191.4 to 191.7 °C
48 | Cc1ccc(N2CCC(O)(COc3ccc(Cl)c4c3CCC(=O)N4)CC2)nc1C | 169.6 to 171 °C
49 | O=C1CCc2c(OCC3(O)CCN(c4cc5c(cc4F)OC(F)(F)O5)CC3)ccc(F)c2N1 | 226.6 to 226.7 °C
50 | O=c1ccc2c(OC[C@]3(O)CCN(c4ccc(Br)cc4F)C[C@H]3O)ccc(F)c2[nH]1 | 224.5 °C (dec.)
51 | O=C1CCc2c(OC[C@]3(O)CCN(c4c(F)cc(Br)cc4F)C[C@H]3O)cc(F)c(Cl)c2N1 | 199 to 199.6 °C
52 | CCCCOc1ccc(N2CCC(O)(COc3ccc(F)c4c3CCC(=O)N4)CC2)c(F)c1 | 193.2 to 193.5 °C
53 | O=C1CCc2c(OCC3(O)CCN(c4ccc(OCC(F)(F)F)cc4F)CC3)ccc(Cl)c2N1 | 148.6 to 148.7 °C
54 | CC(C)Oc1ccc(N2CCC(O)(COc3ccc(F)c4c3CCC(=O)N4)CC2)c(F)c1 | 191.9 to 192.2 °C

Row | Compound | melting point
55 | O=C1CCc2c(OC[C@]3(O)CCN(c4c(F)cc(Br)cc4F)C[C@H]3O)cc(F)c(F)c2N1 | 204.5 to 204.6 °C
56 | O=C1CCc2c(OCC3(O)CCN(c4cc(OCC(F)(F)F)c(Cl)cc4F)CC3)ccc(F)c2N1 | 200.6 to 201 °C
57 | O=c1ccc2c(OC[C@]3(O)CCN(c4c(F)cc(Cl)cc4F)C[C@H]3O)ccc(F)c2[nH]1 (relative stereo) [Example 371] | 232 °C
58 | O=C1CCc2c(OCC3(O)CCN(c4ccc(F)cc4F)CC3)ccc(Cl)c2N1 | 200 to 200.3 °C
59 | N#Cc1cc(F)ccc1N1CCC(COc2ccc(F)c3c2CCC(=O)N3)(ON)CC1 | 207 to 208 °C
60 | COc1cc(N2CCC(O)(COc3ccc(F)c4c3CCC(=O)N4)CC2)c(F)cc1Cl | 232.4 to 232.5 °C
61 | O=C1CCc2c(OCC3(O)CCN(c4cc(F)c(Cl)cc4F)CC3)ccc(F)c2N1 | 185.1 to 185.2 °C
62 | O=C1CCc2c(OCC3(O)CCN(c4c(F)cc(OCC(F)(F)F)cc4F)CC3)ccc(Cl)c2N1 | 178.6 to 178.7 °C
63 | CC(C)Oc1cc(N2CCC(O)(COc3ccc(Cl)c4c3CCC(=O)N4)CC2)c(F)cc1Cl | 173.3 to 173.5 °C
64 | O=C1CCc2c(OCC3(O)CCN(c4cc(OCCF)c(Cl)cc4F)CC3)ccc(Cl)c2N1 | 223 to 223.3 °C
65 | NC1(COc2ccc(F)c3c2CCC(=O)N3)CCN(c2ncc(F)cc2F)CC1 | 160.9 to 163.1 °C
66 | N#Cc1cc(F)ccc1N1CCC(O)(COc2ccc(F)c3c2CCC(=O)N3)CC1 | 206 to 206.9 °C
67 | O=C1CCc2c(OCC3(O)CCN(c4c(F)cc(OCC(F)(F)F)cc4F)CC3)ccc(F)c2N1 | 189.8 to 189.9 °C
68 | O=C1CCc2c(NCC3(O)CCN(c4ccc(Cl)cc4Cl)CC3)ccc(F)c2N1 | 226 to 227 °C
69 | O=C1CCc2c(OCC3(O)CCN(c4c(F)cc(Br)cc4F)CC3)cc(F)c(Cl)c2N1 | 200.5 to 200.8 °C
70 | O=C1CCc2c(OC[C@]3(O)CCN(c4c(F)cc(Cl)cc4F)C[C@@H]3F)ccc(F)c2N1 (relative stereo) [Example 439] | 223 to 224 °C
71 | CC(C)Oc1cc(N2CCC(O)(COc3ccc(F)c4c3CCC(=O)N4)CC2)c(F)cc1Cl | 216.7 to 217 °C
72 | CCCc1cc(N2CCC(O)(COc3ccc(Cl)c4c3CCC(=O)N4)CC2)c(F)cc1F | 156.9 to 157 °C
73 | O=C1CCc2c(OCC3(O)CCN(c4nc5ccc(Cl)cc5o4)CC3)ccc(F)c2N1 | 249 to 250 °C
74 | O=C1CCc2c(OCC3(O)CCN(c4c(Cl)cncc4Cl)CC3)ccc(F)c2N1 | 225.8 to 225.9 °C
75 | CN(CC1(O)CCN(c2ccc(Cl)cc2Cl)CC1)c1ccc(F)c2c1CCC(=O)N2 | 156 to 157 °C
76 | O=C1CCc2c(OCC3(O)CCN(c4ccc(OCc5ccc(Cl)cc5Cl)cc4F)CC3)ccc(F)c2N1 | 175.9 to 177.1 °C
77 | CCOCc1ccc(N2CCC(O)(COc3ccc(F)c4c3CCC(=O)N4)CC2)c(F)c1 | 154.2 to 154.5 °C
78 | O=C1CCc2c(OCC3(O)CCN(c4c(F)cc(F)cc4Cl)CC3)ccc(F)c2N1 | 239.3 to 239.6 °C

From US10464926B2, “Heterobicyclic compounds and their use for the treatment of tuberculosis” (OTSUKA PHARMACEUTICAL CO., LTD., priority 2014, dated 2019)
